This experiment addresses human activated kallikrein enzyme (Homo sapiens, UniProt P03952). Kind of experiment: Plasma kallikrein inhibition, fluorogenic PFR-AMC substrate, 500 pM activated kallikrein format. As to conditions: 500 pM activated kallikrein, 300 uM PFR-AMC, 30 min preincubation, 10 min reaction; read-out: Primary Dose Response Assay: Average EC50. Type of experiment: biochemical. Summed up: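 High-enzyme format of the fluorogenic peptide assay, with EC50 taken from AMC signal: 500 pM activated kallikrein, 300 uM Pro-Phe-Arg-AMC, 30 min compound preincubation and 10 min reaction, all at room temperature, pH 7.5.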
Sequence of human activated kallikrein enzyme (P03952 391-638 limits assumed): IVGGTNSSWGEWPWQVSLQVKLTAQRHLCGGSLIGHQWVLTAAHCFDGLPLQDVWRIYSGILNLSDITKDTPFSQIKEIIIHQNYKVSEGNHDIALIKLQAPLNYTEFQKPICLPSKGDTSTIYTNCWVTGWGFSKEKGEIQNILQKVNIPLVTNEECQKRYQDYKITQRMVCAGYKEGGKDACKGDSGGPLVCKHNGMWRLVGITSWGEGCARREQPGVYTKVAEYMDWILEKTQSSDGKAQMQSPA
Sequence of human activated kallikrein enzyme (P03952 20-390 partner limits assumed): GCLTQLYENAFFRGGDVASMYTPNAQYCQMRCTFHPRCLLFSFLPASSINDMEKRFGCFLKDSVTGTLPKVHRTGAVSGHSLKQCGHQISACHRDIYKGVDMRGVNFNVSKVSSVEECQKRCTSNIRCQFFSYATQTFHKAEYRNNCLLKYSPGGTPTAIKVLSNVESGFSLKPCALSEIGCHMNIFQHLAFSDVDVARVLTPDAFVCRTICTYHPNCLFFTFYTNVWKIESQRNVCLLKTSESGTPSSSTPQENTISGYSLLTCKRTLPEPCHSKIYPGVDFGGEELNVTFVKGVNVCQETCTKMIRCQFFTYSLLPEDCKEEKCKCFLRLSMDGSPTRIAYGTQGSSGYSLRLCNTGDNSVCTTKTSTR
A word on the EC50: it is the concentration that produces a half-maximal response. For the molecule `N#Cc1ccc(Cl)cc1[C@H]1C[C@@H]1C(=O)Nc1cc(C(O)c2cn3cc(C4CC4)ccc3n2)ncn1` (relative stereo) [Example 352, rac-(1S*,2S*)-2-(5-chloro-2-cyanophenyl)-N-(6-((6-cyclopropylimidazo[1,2-a]pyridin-2-yl)(hydroxy)methyl)pyrimidin-4-yl)cyclopropane-1-carboxamide], the EC50 fell in the range of 0.01 to 0.1 µM.

On to `Cc1nc(NC(=O)[C@H]2C[C@@H]2c2nsc(C)n2)cc(N[C@H](C)c2cn3cc(C4CC4)cc(N4CC(=O)N(C)C4=O)c3n2)n1` (relative stereo) [Example 527, rac-(1S*,2S*)-N-(6-(((R)-1-(6-cyclopropyl-8-(3-methyl-2,4-dioxoimidazolidin-1-yl)imidazo[1,2-a]pyridin-2-yl)ethyl)amino)-2-methylpyrimidin-4-yl)-2-(5-methyl-1,2,4-thiadiazol-3-yl)cyclopropane-1-carboxamide], for which the EC50 fell in the range of 0.001 to 0.01 µM.

As for `Cc1ccnc([C@H]2C[C@@H]2C(=O)Nc2cc(N3C[C@@H](O)C[C@@H]3c3cn4cc(C5CC5)ccc4n3)ncn2)c1F` (relative stereo) [Example 542, rac-(1S*,2S*)-N-(6-((2R,4S)-2-(6-cyclopropylimidazo[1,2-a]pyridin-2-yl)-4-hydroxypyrrolidin-1-yl)pyrimidin-4-yl)-2-(3-fluoro-4-methylpyridin-2-yl)cyclopropane-1-carboxamide], the EC50 lay within 0.01 to 0.1 µM.

With `O=C(Nc1cc(NCc2cn3cc(C4CC4)ccc3n2)ccn1)[C@@H]1C[C@]12CCc1ccc(Cl)cc12` (relative stereo) [Example I-272, rac-(1S*,2S*)-6′-chloro-N-(4-(((6-cyclopropylimidazo[1,2-a]pyridin-2-yl)methyl)amino)pyridin-2-yl)-2′,3′-dihydrospiro[cyclopropane-1,1′-indene]-2-carboxamide], the EC50 lay within 1 to 6 µM.

Take `Cc1ccnc([C@@H]2C[C@H]2C(=O)Nc2cc(OCc3cn4cc(C5CC5)cc(N5CC(=O)N(C)C5=O)c4n3)ncn2)n1` (single isomer, unassigned) [Example 29]: the EC50 lay in the range of 0.1 to 1 µM.

For `Cc1ccnc([C@H]2C[C@@H]2C(=O)Nc2cc(O[C@@H](C)c3cn4cc(C5CC5)cc(N5CC(=O)N(C)C5=O)c4n3)cnn2)n1` (single isomer, unassigned) [Example 41], the EC50 was 0.01 to 0.1 µM.

`Cc1ccnc([C@H]2C[C@@H]2C(=O)Nc2cc(O[C@H](C)c3cn4cc(C5CC5)cc(N5CC(=O)N(C)C5=O)c4n3)cnn2)n1` (single isomer, unassigned) [Example 42]: the EC50 is < 0.001 µM.

For `O=C(Nc1cc(NCc2cn3cc(C4CC4)ccc3n2)ncn1)[C@@H]1C[C@H]1c1cccc(Cl)c1` (single isomer, unassigned) [Example 56], the EC50 lay in the range of 0.1 to 1 µM.

With `N#Cc1ccc(Cl)cc1[C@@H]1C[C@H]1C(=O)Nc1cc(NCc2cn3cc(C4CC4)ccc3n2)ccn1` (single isomer, unassigned) [Example 83], the EC50 was 0.01 to 0.1 µM.

Turning to `N#Cc1ccc(Cl)cc1[C@H]1C[C@@H]1C(=O)Nc1cc(NCc2cn3cc(C4CC4)ccc3n2)ccn1` (single isomer, unassigned) [Example 84], the EC50 is < 0.001 µM.

Take `O=C(Nc1cc(NCc2cn3cc(C4CC4)ccc3n2)ccn1)[C@@H]1C[C@H]1c1cccc(Cl)c1` (single isomer, unassigned) [Example 116]: the EC50 was 0.1 to 1 µM.

Regarding `Cc1ccnc([C@@H]2C[C@H]2C(=O)Nc2cc(NCc3cn4cc(C5CC5)cc(S(C)(=O)=O)c4n3)ncn2)n1` (single isomer, unassigned) [Example 323], the EC50 lay within 0.01 to 0.1 µM.

As to `Cc1ccnc([C@H]2C[C@@H]2C(=O)Nc2cc(N[C@@H](C)c3cn4cc(C5CC5)cc(N5CC(=O)N(C)C5=O)c4n3)ncn2)n1` (single isomer, unassigned) [Example 452], the EC50 lay within 0.01 to 0.1 µM.

As for `C[C@H]1[C@H](C(=O)Nc2cc(NCc3cn4cc(C5CC5)ccc4n3)ncn2)[C@H]1c1cccc(Cl)c1` (single isomer, unassigned) [Example 505, (1R*,2R*,3S*)-2-(3-chlorophenyl)-N-(6-(((6-cyclopropylimidazo[1,2-a]pyridin-2-yl)methyl)amino)pyrimidin-4-yl)-3-methylcyclopropane-1-carboxamide], the EC50 lay within 0.01 to 0.1 µM.

`C[C@H]1[C@H](C(=O)Nc2cc(NCc3cn4cc(C5CC5)ccc4n3)ncn2)[C@H]1c1cccc(Cl)c1` (single isomer, unassigned) [Example 506, (1R*,2R*,3S*)-2-(3-chlorophenyl)-N-(6-(((6-cyclopropylimidazo[1,2-a]pyridin-2-yl)methyl)amino)pyrimidin-4-yl)-3-methylcyclopropane-1-carboxamide]: the EC50 was > 6 µM.

With `C[C@H]1[C@H](C(=O)Nc2cc(NCc3cn4cc(C5CC5)ccc4n3)ncn2)[C@H]1c1cccc(Cl)c1` (single isomer, unassigned) [Example 507, (1R*,2R*,3S*)-2-(3-chlorophenyl)-N-(6-(((6-cyclopropylimidazo[1,2-a]pyridin-2-yl)methyl)amino)pyrimidin-4-yl)-3-methylcyclopropane-1-carboxamide], the EC50 is > 6 µM.

For the molecule `C[C@H]1[C@H](C(=O)Nc2cc(NCc3cn4cc(C5CC5)ccc4n3)ncn2)[C@H]1c1cccc(Cl)c1` (single isomer, unassigned) [Example 508, (1R*,2R*,3S*)-2-(3-chlorophenyl)-N-(6-(((6-cyclopropylimidazo[1,2-a]pyridin-2-yl)methyl)amino)pyrimidin-4-yl)-3-methylcyclopropane-1-carboxamide], the EC50 is > 6 µM.

With `CC(NC(=O)[C@H]1C[C@@H]1c1cccc(Cl)c1)c1cn(Cc2cn3cc(C4CC4)ccc3n2)nn1` (single isomer, unassigned) [Example 589, rac-(1S*,2S*)-2-(3-chlorophenyl)-N-(1-(1-((6-cyclopropylimidazo[1,2-a]pyridin-2-yl)methyl)-1H-1,2,3-triazol-4-yl)ethyl)cyclopropane-1-carboxamide], the EC50 is 0.01 to 0.1 µM.

For the molecule `CC(NC(=O)[C@H]1C[C@@H]1c1cccc(Cl)c1)c1cn(Cc2cn3cc(C4CC4)ccc3n2)nn1` (single isomer, unassigned) [Example 590, rac-(1S*,2S*)-2-(3-chlorophenyl)-N-(1-(1-((6-cyclopropylimidazo[1,2-a]pyridin-2-yl)methyl)-1H-1,2,3-triazol-4-yl)ethyl)cyclopropane-1-carboxamide], the EC50 lay in the range of 0.01 to 0.1 µM.

As for `CN(C)C1CCN(c2cc(C3CC3)cn3cc(CNc4cc(NC(=O)[C@H]5C[C@@H]5c5cccc(Cl)c5)ncn4)nc23)C1` (single isomer, unassigned) [Example I-14], the EC50 lay within 0.001 to 0.01 µM.

For `CN(C)C1CCN(c2cc(C3CC3)cn3cc(CNc4cc(NC(=O)[C@H]5C[C@@H]5c5cccc(Cl)c5)ncn4)nc23)C1` (single isomer, unassigned) [Example I-15], the EC50 lay in the range of 0.001 to 0.01 µM.

Consider `Nc1cc(Cl)cc([C@H]2C[C@@H]2C(=O)Nc2cc(NCc3cn4cc(C5CC5)ccc4n3)ncn2)c1` (single isomer, unassigned) [Example I-257, rac-(1S*,2S*)-2-(3-amino-5-chlorophenyl)-N-(6-(((6-cyclopropylimidazo[1,2-a]pyridin-2-yl)methyl)amino)pyrimidin-4-yl)cyclopropane-1-carboxamide], for which the EC50 was 0.001 to 0.01 µM.

The values above are taken from patent US20240228488A1 (TAKEDA PHARMACEUTICAL COMPANY LIMITED, priority 2021, published 2024).
